Among the data in US12435061B2 (priority 2020, dated 2025) are IC50 values, retold here.

The target in the assay is hTRPV3 (Homo sapiens (Human), UniProt Q8NET8). As to the kind of experiment: Whole-cell patch clamp, hTRPV3 Phase 1 / Phase 2 currents. It is filed as cell-based. The text has this:
Whole-cell patch clamp experiments permit the detection of currents through the TRPV3 channel in the cell line described above. A glass electrode is brought into contact with a single cell and the membrane is then ruptured, permitting control of the voltage of the cell membrane and measurement of currents flowing across the membrane using the amplifier attached to the electrode. A perfusion system permits control of the extracellular solution, including the addition of blockers and activators of the current. The current can be activated by heating this solution to 28° C. or warmer or by addition of 20 μM 2-APB to the solution.
TRPV3 cells were induced 20-48 hours, removed from growth plates, and replated at low density (to attain good single-cell physical separation) on glass coverslips for measurement. In some cases, cells were grown in low density overnight on glass coverslips. Patch clamp recordings were made in the whole-cell mode with a holding potential of −40 mV. Every 5 seconds, a voltage ramp was applied from −120 to +100 mV, 400 ms in duration. Currents elicited were quantified at −80 mV and +80 mV. […] External solution was Ringer's solution described above.
P1 refers to the Phase 1 current for human (h) TRPV3, and P2 refers to the Phase 2 current for human (h) TRPV3.
In Tables 3 and 4, Phase 1 refers to Phase 1 current for human (h) TRPV3 or rat (r) TRPV3, and Phase 2 refers to Phase 2 current for human (h) TRPV3 or rat (r) TRPV3. The hTRPV3 and rTRPV3 assays were performed as described herein. hERG refers to the inhibition the human ERG (hERG) channel. NaV1.5, refers to the pore forming aL-subunit of the voltage-dependent cardiac Na(+) channel and is an integral membrane protein involved in the initiation and conduction of action potentials. hTRPV3 HAMA IC50 refers to the IC50 of TRPV3 cells stably expressed in TRex-293 cells. Solubility Ringer refers to the compounds' solubility in Ringer's solution. LM T1/2 refers to liver microsome half-lives in either rat or human liver microsomes. FLIPR IC50 refers to the IC50 of the test compounds against recombinant hTRPV3 cells.
Background: The patch-clamp technique gives a direct electrical read-out from membranes.

The mark [1] stands for this setting: Phase 1 current, human TRPV3, read-out: hTRPV3 (nM) Phase 1.
Setting [2] is: Phase 1 current, inward, whole-cell patch clamp, read-out: hTRPV3 Patch P1 Inwd.
[3] abbreviates: Phase 1 current, read-out: hTRPV3 (nM) (Phase 1).
Setting [4] is: Phase 2 current, inward, whole-cell patch clamp, read-out: hTRPV3 Patch P2 Inwd.
Where [5] appears, read: Phase 2 current, read-out: hTRPV3 (nM) (Phase 2).

“And” between values parts separate entries of the source, which are not always exact repeats. Equal values may be shown once. Where a name gives a salt, the structure may show the parent alone. Read-outs that look alike come from different tables or passages of the source.

Sequence of hTRPV3 (Q8NET8 whole entry, the tested form may be a part): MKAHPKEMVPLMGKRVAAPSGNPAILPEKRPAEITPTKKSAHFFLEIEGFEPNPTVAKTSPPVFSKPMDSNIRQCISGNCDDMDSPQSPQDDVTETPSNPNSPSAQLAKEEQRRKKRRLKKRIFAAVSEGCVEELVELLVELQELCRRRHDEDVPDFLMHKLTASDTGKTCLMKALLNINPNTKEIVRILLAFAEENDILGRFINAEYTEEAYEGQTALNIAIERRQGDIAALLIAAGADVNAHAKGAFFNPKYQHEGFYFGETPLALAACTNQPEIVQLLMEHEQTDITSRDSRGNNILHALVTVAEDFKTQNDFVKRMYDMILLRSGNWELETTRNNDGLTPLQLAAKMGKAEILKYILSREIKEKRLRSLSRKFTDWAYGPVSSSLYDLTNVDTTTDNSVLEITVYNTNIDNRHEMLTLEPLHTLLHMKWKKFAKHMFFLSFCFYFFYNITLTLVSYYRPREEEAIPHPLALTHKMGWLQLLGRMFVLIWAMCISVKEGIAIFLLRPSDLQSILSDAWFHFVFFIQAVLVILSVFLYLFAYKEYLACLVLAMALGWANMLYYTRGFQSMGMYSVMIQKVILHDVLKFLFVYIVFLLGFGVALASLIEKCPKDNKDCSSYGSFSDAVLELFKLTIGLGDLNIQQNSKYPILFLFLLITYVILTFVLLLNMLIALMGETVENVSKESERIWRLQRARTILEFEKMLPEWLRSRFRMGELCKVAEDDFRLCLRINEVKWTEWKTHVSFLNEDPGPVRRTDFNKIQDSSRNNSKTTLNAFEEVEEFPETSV

On to `Cc1cccnc1CN1CCC(c2ccc(Oc3ccccc3C(C)C)cc2CO)C1` (centres unmarked) [Compound 2-89, (5-(2-isopropylphenoxy)-2-(1-((3-methylpyridin-2-yl)methyl)pyrrolidin-3-yl)phenyl)methanol hydrochloride], for which the IC50 is 1230 nM under setting [1] and more than 1000 nM under setting [2].
As for `O=C(O)c1cc(-c2ccccc2Cl)ccc1N1CC[C@H](Oc2ccc(C(F)(F)F)cn2)C1` [Compound 1-166, (S)-2′-chloro-4-(3-(5-(trifluoromethyl)pyridin-2-yloxy)pyrrolidin-1-yl)biphenyl-3-carboxylic acid], the IC50 reads like this: under setting [2], more than 1000 nM; under setting [3], approximately 2210 nM; under setting [4], more than 1000 nM; under setting [5], approximately 2230 nM.
With `OCc1cc(C2CCOCC2)ccc1N1CC[C@H](Oc2ccc(C(F)(F)F)cn2)C1` [Compound 1-276, (S)-(5-(tetrahydro-2H-pyran-4-yl)-2-(3-(5-(trifluoromethyl)pyridin-2-yloxy)pyrrolidin-1-yl)phenyl)methanol], the IC50 by setting is: under setting [2], more than 1000 nM; under setting [3], more than 3200 nM.
Consider `OCCc1cc(C(O)c2cccc(F)c2)ccc1N1CC[C@H](Oc2ncccc2Cl)C1` (stereo partly drawn) [Compound 1-312, 2-(2-((S)-3-(3-chloropyridin-2-yloxy)pyrrolidin-1-yl)-5-((3-fluorophenyl)(hydroxy)methyl)phenyl)ethanol], for which the IC50 was more than 1000 nM under setting [2] and approximately 1920 nM under setting [3].
As for `NC(=O)c1cc(-c2ccccc2)cnc1N1CC[C@H](Nc2ccc(C(F)(F)F)cn2)C1` [Compound 1-374, (S)-5-phenyl-2-(3-(5-(trifluoromethyl)pyridin-2-ylamino)pyrrolidin-1-yl)nicotinamide], the IC50 is more than 1000 nM under setting [2], more than 3200 nM under setting [3], more than 1000 nM under setting [4] and more than 3200 nM under setting [5].
As for `CCc1ccccc1C(O)c1ccc(N2CC[C@H](Oc3ncccc3Cl)C2)c(CO)c1` (stereo partly drawn) [Compound 1-260, (4-((S)-3-(3-chloropyridin-2-yloxy)pyrrolidin-1-yl)-3-(hydroxymethyl)phenyl)(2-ethylphenyl)methanol], the IC50 by setting is: under setting [2], more than 1000 nM; under setting [3], 3150 nM.
The matching figures for `CN(C(=O)c1ccc(N2CC[C@H](Oc3ncccc3Cl)C2)c(CCO)c1)c1ccccc1` [Compound 1-337, (S)-4-(3-(3-chloropyridin-2-yloxy)pyrrolidin-1-yl)-3-(2-hydroxyethyl)-N-methyl-N-phenylbenzamide]: more than 1000 nM and more than 3200 nM.
In the case of `NC(=O)c1cc(-c2ccccc2Cl)ccc1N1CCC(Oc2ccc3ccccc3n2)C1=O` (centres unmarked) [Compound 1-114, 2′-chloro-4-(2-oxo-3-(quinolin-2-yloxy)pyrrolidin-1-yl)biphenyl-3-carboxamide], the IC50 is more than 1000 nM under setting [2], approximately 3900 nM under setting [3], more than 1000 nM under setting [4] and approximately 3150 nM under setting [5].
Turning to `Cc1ccc(O[C@H]2CCN(c3ccc(-c4ccccc4CN(C)C(=O)OC(C)(C)C)nc3CO)C2)nc1` [Compound 1-258, (S)-tert-butyl 2-(6-(hydroxymethyl)-5-(3-(5-methylpyridin-2-yloxy)pyrrolidin-1-yl)pyridin-2-yl)benzyl (methyl)carbamate], the IC50 reads like this: under setting [2], 100 to 1000 nM; under setting [3], 276 nM.
Regarding `CC(O)c1cc(F)ccc1-c1ccc(C2CCN(C(=O)c3ccc(F)cn3)C2)c(CO)c1` (centres unmarked) [Compound 2-70, (3-(4′-fluoro-2′-(1-hydroxyethyl)-3-(hydroxymethyl)biphenyl-4-yl)pyrrolidin-1-yl)(5-fluoropyridin-2-yl)methanone], the IC50 reads like this: under setting [1], 2330 nM; under setting [2], more than 1000 nM.
Regarding `N#Cc1cccc(C(O)c2ccc(N3CC[C@H](Oc4ncccc4Cl)C3)c(CCO)c2)c1` (stereo partly drawn) [Compound 1-356, 3-((4-((S)-3-(3-chloropyridin-2-yloxy)pyrrolidin-1-yl)-3-(2-hydroxyethyl)phenyl)(hydroxy)methyl)benzonitrile], the IC50 under setting [2] was more than 1000 nM and the IC50 under setting [3] was more than 3200 nM.
Turning to `CC(C)c1ccccc1Oc1ccc(C2CC(=O)N(Cc3ccc(Cl)cn3)C2)c(C(N)=O)c1` (centres unmarked) [Compound 2-102, 2-(1-((5-chloropyridin-2-yl)methyl)-5-oxopyrrolidin-3-yl)-5-(2-isopropylphenoxy)benzamide], the IC50 runs as follows: under setting [1], approximately 2150 nM; under setting [2], more than 1000 nM.
Turning to `O=C(c1csc(Cl)n1)N1CCC(c2ccc(-c3ccccc3C3CC3)cc2CO)C1` (centres unmarked) [Compound 2-124], the IC50 under setting [1] is 20.7 nM.
Turning to `CC(C)c1ccccc1Oc1ccc(C2CCN(C(=O)c3ccc(C(F)(F)F)cn3)C2)c(CO)c1` (centres unmarked) [Compound 2-21, (3-(2-(hydroxymethyl)-4-(2-isopropylphenoxy)phenyl)pyrrolidin-1-yl)(5-(trifluoromethyl)pyridin-2-yl)methanone], the IC50 reads like this: under setting [1], 97.1 nM; under setting [2], 10 to 100 nM.
In the case of `Cc1ccccc1Oc1ccc(C2CCN(C(=O)c3ncccc3Cl)C2)c(CO)c1` (centres unmarked) [Compound 2-84, (3-chloropyridin-2-yl)(3-(2-(hydroxymethyl)-4-(o-tolyloxy)phenyl)pyrrolidin-1-yl)methanone], the IC50 under setting [1] amounted to 932 nM.
As for `CCc1cncnc1Oc1ccc(C2CCN(C(=O)c3ccc(F)cn3)C2)c(CO)c1` (centres unmarked) [Compound 2-24, (3-(4-(5-ethylpyrimidin-4-yloxy)-2-(hydroxymethyl)phenyl)pyrrolidin-1-yl)(5-fluoropyridin-2-yl)methanone], the IC50 by setting is: under setting [1], more than 3200 nM; under setting [2], more than 1000 nM.
Consider `CC(C)Oc1cc(-c2ccccc2)ccc1N1CC[C@H](Oc2ccc(C(F)(F)F)cn2)C1` [Compound 1-77, (S)-2-(1-(3-isopropoxybiphenyl-4-yl)pyrrolidin-3-yloxy)-5-(trifluoromethyl)pyridine], for which the IC50 is more than 1000 nM under setting [2], more than 3200 nM under setting [3], more than 1000 nM under setting [4] and 1470 nM under setting [5].
As to `CC(C)c1ccccc1Oc1ccc(C2CC(=O)N(Cc3ccccn3)C2)c(C(N)=O)c1` (centres unmarked) [Compound 2-99, 5-(2-isopropylphenoxy)-2-(5-oxo-1-(pyridin-2-ylmethyl)pyrrolidin-3-yl)benzamide], the IC50 reads like this: under setting [1], more than 3200 nM; under setting [2], more than 1000 nM.
Take `O=C(c1ccc(C(F)(F)F)cn1)N1CCC(c2ccc(-c3ccccc3)nc2CO)C1` (centres unmarked) [Compound 2-81]: the IC50 is 268 nM under setting [1]; 100 to 1000 nM under setting [2]; 298 nM (Phase 2 current, human TRPV3, read-out: hTRPV3 (nM) Phase 2); 100 to 1000 nM under setting [4].
`OCc1cc(-c2ccccc2)ccc1N1CC[C@H](Oc2ccc(Cl)cn2)C1` [Compound 1-147, (S)-(4-(3-(5-chloropyridin-2-yloxy)pyrrolidin-1-yl)biphenyl-3-yl)methanol]: the IC50 under setting [2] lay in the range of 100 to 1000 nM and the IC50 under setting [3] turned out to be 171 nM.
Consider `OCCc1cc(Oc2ccccc2F)ccc1N1CC[C@H](Oc2ccccn2)C1` [Compound 1-334], for which the IC50 under setting [2] was 100 to 1000 nM, the IC50 under setting [3] came out at 289 nM, the IC50 under setting [4] is 100 to 1000 nM and the IC50 under setting [5] is approximately 243 nM.
`COC(C)c1ccccc1Oc1ccc(N2CC[C@H](Oc3ccc(C)cn3)C2)c(CCO)c1` (stereo partly drawn) [Compound 1-355, 2-(5-(2-(1-methoxyethyl)phenoxy)-2-((S)-3-(5-methylpyridin-2-yloxy)pyrrolidin-1-yl)phenyl)ethanol]: the IC50 was 100 to 1000 nM under setting [2] and 173 nM under setting [3].
The like results for `CCc1ccccc1C(=O)c1ccc(N2CC[C@H](Nc3ncccc3Cl)C2)c(CO)c1` [Compound 1-384, (S)-(4-(3-(3-chloropyridin-2-ylamino)pyrrolidin-1-yl)-3-(hydroxymethyl)phenyl)(2-ethylphenyl)methanone] were, in that order, 100 to 1000 nM and 495 nM.
With `NC(=O)c1cc(-c2ccccc2)ccc1N1CC[C@H](Nc2ccc(C(F)(F)F)cn2)C1` (stereo in doubt) [Compound 1-375], the IC50 under setting [3] is > 1000 nM and ~5500 nM; the IC50 under setting [5] is > 1000 nM and ~2850 nM.
Turning to `CCc1cccnc1Oc1ccc(C2CCN(C(=O)c3ccc(F)cn3)C2)c(CO)c1` (centres unmarked) [Compound 2-44, (3-(4-(3-ethylpyridin-2-yloxy)-2-(hydroxymethyl)phenyl)pyrrolidin-1-yl)(5-fluoropyridin-2-yl)methanone], the IC50 runs as follows: under setting [1], more than 3200 nM; under setting [2], more than 1000 nM.
For `N#Cc1ccc(-c2ccc(N3CC[C@H](Oc4ccc(C(F)(F)F)cn4)C3)c(CO)c2)cc1` [Compound 1-252, (S)-3′-(hydroxymethyl)-4′-(3-(5-(trifluoromethyl)pyridin-2-yloxy)pyrrolidin-1-yl)biphenyl-4-carbonitrile], the IC50 is 100 to 1000 nM under setting [2] and 886 nM under setting [3].
